Measurements published in patent US8058311B2, “Imaging 18F or 11C-labelled alkylthiophenyl guanidines” (Hammersmith Imanet Limited, priority 2005, dated 2011).

Experiment: Biodistribution: radioactivity in rat brain tissue after intravenous injection
Type: in vivo
Conditions: for signal relative to cerebellum in hippocampus and cortex: IV injection; for radioactivity in blood / radioactivity in cerebellum / radioactivity in entorhinal cortex / radioactivity in hippocampus / radioactivity in hypothalamus / radioactivity in inferior colliculi / radioactivity in occipital cortex / radioactivity in olfactory tubercles / radioactivity in plasma (shown for comparison) / radioactivity in pons with medulla / radioactivity in prefrontal cortex / radioactivity in somatosensory cortex / radioactivity in striata / radioactivity in superior colliculi / radioactivity in thalamus: intravenous injection
Procedure: N-(2-Chloro-5-(2-[^18F]fluoro-ethylthio))-phenyl-N′-(3-methylthio)-phenyl-N′-methylguanidine was prepared according to Example 4 (synthesis formulation ˜3% ethanol in 0.9% w/v saline solution) with a radiochemical purity of ˜99% and, at time of injection, the specific activity ranged from 4-16 GBq/nmol^−1. Biodistribution and blood data were from 11 adult male Sprague-Dawley rats (body weight range, 269 to 329 g; mean±S.E.=300±18 g). N-(2-Chloro-5-(2-[^18F]fluoro-ethylthio))-phenyl-N′-(3-methylthio)-phenyl-N′-methylguanidine was injected directly into the tail vein of each rat whilst under isoflurane anaesthesia. Each animal was then allowed to recover from anaesthesia. At designated times after injection, rats were sacrificed by cervical dislocation under anaesthesia and brain and body tissues were rapidly sampled.
The data were acquired using two syntheses. Rats were given an average of 86 MBq (85.3 MBq for first experimental day and 87.3 MBq for the second experimental day), in a volume of 0.20 ml (synthesis formulation ˜3% alcohol), via direct intravenous injection through the tail vein. The mass of co-injected N-(2-Chloro-5-(2-[^18F]fluoro-ethylthio))-phenyl-N′-(3-methylthio)-phenyl-N′-methylguanidine ranged from 0.7-2.9 nmol.kg^−1. Details of the methodology, together with processing and counting of the samples can be found in Hume et al., Nucl. Med. Biol. (1991) 18: 339-351. Data were normalised for injected radioactivity and body weight, giving: ‘uptake units’=(cpm.g^−1 wet weight tissue)·(injected cpm.g^−1 body weight)^−1 Results
Radioactivity concentration data are additionally collated in Tables 1 (peripheral tissue) and 2 (brain). As metabolite studies were not carried out, the proportion of the total radioactivity reflecting label associated with parent N-(2-Chloro-5-(2-[^18F]fluoro-ethylthio))-phenyl-N′-(3-methylthio)-phenyl-N′-methylguanidine is not known. Note, Blood and plasma samples were collected post-mortem from the heart ventricle.

initial uptake in all brain tissues (2 minutes after IV injection): ~4 uptake units
activity in all brain tissues (90 minutes after radioligand injection): ~0.4 uptake units
signal relative to cerebellum in hippocampus and cortex (by 90 minutes): 1
signal relative to cerebellum in hippocampus and cortex (reached over the first 40 minutes): 1.3
signal relative to cerebellum in hippocampus and cortex (start of the first 40 minutes): ~0.8
rat brain uptake of radioactivity (earliest sample time (2 min) after IV injection): high uptake of radioactivity
radioactivity in blood (2 min, n = 1): 0.288 uptake units
radioactivity in cerebellum (2 min, n = 1): 4.204 uptake units
radioactivity in entorhinal cortex (2 min, n = 1): 2.766 uptake units
radioactivity in hippocampus (2 min, n = 1): 2.864 uptake units
radioactivity in hypothalamus (2 min, n = 1): 3.397 uptake units
radioactivity in inferior colliculi (2 min, n = 1): 6.716 uptake units
radioactivity in occipital cortex (2 min, n = 1): 4.008 uptake units
radioactivity in olfactory tubercles (2 min, n = 1): 2.826 uptake units
radioactivity in plasma (shown for comparison) (2 min, n = 1): 0.264 uptake units
radioactivity in pons with medulla (2 min, n = 1): 3.678 uptake units
radioactivity in prefrontal cortex (2 min, n = 1): 3.808 uptake units
radioactivity in somatosensory cortex (2 min, n = 1): 3.531 uptake units
radioactivity in striata (2 min, n = 1): 2.306 uptake units
radioactivity in superior colliculi (2 min, n = 1): 4.977 uptake units
radioactivity in thalamus (2 min, n = 1): 4.460 uptake units
radioactivity in blood (5 min, n = 1): 0.261 uptake units
radioactivity in cerebellum (5 min, n = 1): 2.761 uptake units
radioactivity in entorhinal cortex (5 min, n = 1): 2.442 uptake units
radioactivity in hippocampus (5 min, n = 1): 2.250 uptake units
radioactivity in hypothalamus (5 min, n = 1): 2.443 uptake units
radioactivity in inferior colliculi (5 min, n = 1): 3.292 uptake units
radioactivity in occipital cortex (5 min, n = 1): 2.883 uptake units
radioactivity in olfactory tubercles (5 min, n = 1): 3.062 uptake units
radioactivity in plasma (shown for comparison) (5 min, n = 1): 0.135 uptake units
radioactivity in pons with medulla (5 min, n = 1): 2.877 uptake units
radioactivity in prefrontal cortex (5 min, n = 1): 3.099 uptake units
radioactivity in somatosensory cortex (5 min, n = 1): 2.772 uptake units
radioactivity in striata (5 min, n = 1): 1.817 uptake units
radioactivity in superior colliculi (5 min, n = 1): 3.541 uptake units
radioactivity in thalamus (5 min, n = 1): 2.566 uptake units
radioactivity in blood (10 min, n = 2): 0.146 uptake units
radioactivity in cerebellum (10 min, n = 2): 1.451 uptake units
radioactivity in entorhinal cortex (10 min, n = 2): 1.404 uptake units
radioactivity in hippocampus (10 min, n = 2): 1.396 uptake units
radioactivity in hypothalamus (10 min, n = 2): 1.275 uptake units
radioactivity in inferior colliculi (10 min, n = 2): 1.539 uptake units
radioactivity in occipital cortex (10 min, n = 2): 1.651 uptake units
radioactivity in olfactory tubercles (10 min, n = 2): 1.300 uptake units
radioactivity in plasma (shown for comparison) (10 min, n = 2): 0.102 uptake units
radioactivity in pons with medulla (10 min, n = 2): 1.530 uptake units
radioactivity in prefrontal cortex (10 min, n = 2): 1.649 uptake units
radioactivity in somatosensory cortex (10 min, n = 2): 1.588 uptake units
radioactivity in striata (10 min, n = 2): 1.433 uptake units
radioactivity in superior colliculi (10 min, n = 2): 1.677 uptake units
radioactivity in thalamus (10 min, n = 2): 1.353 uptake units
radioactivity in blood (30 min, n = 3, mean ± SD): 0.269 ± 0.042 uptake units
radioactivity in cerebellum (30 min, n = 3, mean ± SD): 0.919 ± 0.110 uptake units
radioactivity in entorhinal cortex (30 min, n = 3, mean ± SD): 0.941 ± 0.086 uptake units
radioactivity in hippocampus (30 min, n = 3, mean ± SD): 1.088 ± 0.142 uptake units
radioactivity in hypothalamus (30 min, n = 3, mean ± SD): 1.076 ± 0.250 uptake units
radioactivity in inferior colliculi (30 min, n = 3, mean ± SD): 0.841 ± 0.084 uptake units
radioactivity in occipital cortex (30 min, n = 3, mean ± SD): 1.041 ± 0.067 uptake units
radioactivity in olfactory tubercles (30 min, n = 3, mean ± SD): 0.981 ± 0.235 uptake units
radioactivity in plasma (shown for comparison) (30 min, n = 3, mean ± SD): 0.229 ± 0.047 uptake units
radioactivity in pons with medulla (30 min, n = 3, mean ± SD): 1.110 ± 0.129 uptake units
radioactivity in prefrontal cortex (30 min, n = 3, mean ± SD): 1.168 ± 0.042 uptake units
radioactivity in somatosensory cortex (30 min, n = 3, mean ± SD): 1.037 ± 0.103 uptake units
radioactivity in striata (30 min, n = 3, mean ± SD): 1.101 ± 0.202 uptake units
radioactivity in superior colliculi (30 min, n = 3, mean ± SD): 1.086 ± 0.286 uptake units
radioactivity in thalamus (30 min, n = 3, mean ± SD): 1.415 ± 0.203 uptake units
radioactivity in blood (60 min, n = 3, mean ± SD): 0.229 ± 0.068 uptake units
radioactivity in cerebellum (60 min, n = 3, mean ± SD): 0.454 ± 0.082 uptake units
radioactivity in entorhinal cortex (60 min, n = 3, mean ± SD): 0.502 ± 0.095 uptake units
radioactivity in hippocampus (60 min, n = 3, mean ± SD): 0.548 ± 0.119 uptake units
radioactivity in hypothalamus (60 min, n = 3, mean ± SD): 0.533 ± 0.115 uptake units
radioactivity in inferior colliculi (60 min, n = 3, mean ± SD): 0.456 ± 0.079 uptake units
radioactivity in occipital cortex (60 min, n = 3, mean ± SD): 0.541 ± 0.124 uptake units
radioactivity in olfactory tubercles (60 min, n = 3, mean ± SD): 0.504 ± 0.062 uptake units
radioactivity in plasma (shown for comparison) (60 min, n = 3, mean ± SD): 0.222 ± 0.055 uptake units
radioactivity in pons with medulla (60 min, n = 3, mean ± SD): 0.551 ± 0.143 uptake units
radioactivity in prefrontal cortex (60 min, n = 3, mean ± SD): 0.519 ± 0.105 uptake units
radioactivity in somatosensory cortex (60 min, n = 3, mean ± SD): 0.517 ± 0.107 uptake units
radioactivity in striata (60 min, n = 3, mean ± SD): 0.481 ± 0.136 uptake units
radioactivity in superior colliculi (60 min, n = 3, mean ± SD): 0.486 ± 0.101 uptake units
radioactivity in thalamus (60 min, n = 3, mean ± SD): 0.553 ± 0.108 uptake units
radioactivity in blood (90 min, n = 1): 0.180 uptake units
radioactivity in cerebellum (90 min, n = 1): 0.366 uptake units
radioactivity in entorhinal cortex (90 min, n = 1): 0.383 uptake units
radioactivity in hippocampus (90 min, n = 1): 0.391 uptake units
radioactivity in hypothalamus (90 min, n = 1): 0.466 uptake units
radioactivity in inferior colliculi (90 min, n = 1): 0.306 uptake units
radioactivity in occipital cortex (90 min, n = 1): 0.423 uptake units
radioactivity in olfactory tubercles (90 min, n = 1): 0.504 uptake units
radioactivity in plasma (shown for comparison) (90 min, n = 1): 0.163 uptake units
radioactivity in pons with medulla (90 min, n = 1): 0.406 uptake units
radioactivity in prefrontal cortex (90 min, n = 1): 0.414 uptake units
radioactivity in somatosensory cortex (90 min, n = 1): 0.376 uptake units
radioactivity in striata (90 min, n = 1): 0.485 uptake units
radioactivity in superior colliculi (90 min, n = 1): 0.386 uptake units
radioactivity in thalamus (90 min, n = 1): 0.551 uptake units
Compound: CSc1cccc(N(C)C(=N)Nc2cc(SCC[18F])ccc2Cl)c1 [N-(2-Chloro-5-(2-[^18F]fluoro-ethylthio))-phenyl-N′-(3-methylthio)-phenyl-N′-methylguanidine]
